Results reported in patent US10745356B2, “Compositions and methods for treating tuberculosis” (priority 2015, dated 2020).
≈ marks a conversion by molar mass, not a printed value. Like-named read-outs stand apart in the source and are kept apart here.

System: M. tuberculosis strains
Test: Minimum Inhibitory Concentration (MIC) against M. tuberculosis strains, resazurin microtiter plate assay
Assay type: cell-based, Mycobacterium tuberculosis
Details: Mycobacterium tuberculosis
[1] = Table 1, C2 SAR with chlorophenyl, Middlebrook 7H9, 37° C. six days, resazurin fluorescence after 48 hours, read-out: MIC90
[2] = Table 1A, C2 SAR with fluorophenyl, Middlebrook 7H9, 37° C. six days, resazurin fluorescence after 48 hours, read-out: MIC90
[3] = Table 5, Middlebrook 7H9, 37° C. six days, resazurin fluorescence after 48 hours, read-out: MIC90
[4] = Table 6, Middlebrook 7H9, 37° C. six days, resazurin fluorescence after 48 hours, read-out: MIC90
[5] = Table 3, C4 SAR, Middlebrook 7H9, 37° C. six days, resazurin fluorescence after 48 hours, read-out: MIC90
[6] = Table 4A, C6 SAR with amide, Middlebrook 7H9, 37° C. six days, resazurin fluorescence after 48 hours, read-out: MIC90
[7] = Table 2, C4 SAR, Middlebrook 7H9, 37° C. six days, resazurin fluorescence after 48 hours, read-out: MIC90

Structure (SMILES): Cc1cc2nc(C(=O)NCC(N)=O)cc(-c3ccccc3Cl)c2c(C)c1-c1ccncc1 [Compound 27]
- MIC90 [1]: 0.8 µM (≈ 0.356 µg/mL)

Structure (SMILES): Cc1cc2nc(C(=O)NC[C@@H](O)CO)cc(-c3ccccc3F)c2c(C)c1-c1ccncc1 [Compound 44]
- MIC90 [2]: 0.6 µM (≈ 0.267 µg/mL)

Structure (SMILES): CNC(=O)c1cc(-c2ccc(Cl)cc2)c2c(C)c(-c3ccncc3)c(C)cc2n1 [Compound 67]
- MIC90: 40 µM (≈ 16.1 µg/mL)

Structure (SMILES): CNC(=O)c1cc(N2CCN(C)CC2)c2c(C)c(-c3ccncc3)c(C)cc2n1 [Compound 100]
- MIC90 [3]: > 50 µM

Structure (SMILES): CNC(=O)c1cc(-c2ccnn2C)c2c(C)c(-c3ccncc3)c(C)cc2n1 [Compound 104]
- MIC90 [4]: 6 µM (≈ 2.23 µg/mL)

Structure (SMILES): Cc1cc2nc(C(=O)NC3CCN(C)C3)cc(-c3ccccc3F)c2c(C)c1-c1ccncc1 (centres unmarked) [Compound 45]
- MIC90 [2]: 1.25 µM (≈ 0.568 µg/mL)

Structure (SMILES): Cc1cc2nc(C(=O)NCCO)cc(-c3ccccc3Cl)c2c(C)c1-c1ccncc1 [Compound 15]
- MIC90 [1]: 0.3 µM (≈ 0.13 µg/mL)

Structure (SMILES): Cc1cc2nc(C(=O)NC(CO)CO)cc(-c3ccccc3Cl)c2c(C)c1-c1ccncc1 [Compound 34]
- MIC90 [1]: 1.9 µM (≈ 0.878 µg/mL)

Structure (SMILES): Cc1cc2nc(C(=O)NCCF)cc(-c3ccccc3Cl)c2c(C)c1-c1ccncc1 [Compound 31]
- MIC90: 1.25 µM (≈ 0.542 µg/mL)

Structure (SMILES): CNC(=O)c1cc(-c2ccccc2F)c2c(C)c(-c3ccncc3)c(C)cc2n1 [Compound 37]
- MIC90 [2]: 1.25 µM (≈ 0.482 µg/mL)
- MIC90 [5]: 0.6 µM (≈ 0.231 µg/mL)
- MIC90 [6]: 1.25 µM (≈ 0.482 µg/mL)

Structure (SMILES): Cc1cc2nc(C(=O)NCC(C)(C)C(=O)O)cc(-c3ccccc3Cl)c2c(C)c1-c1ccncc1 [Compound 28]
- MIC90 [1]: 80 µM (≈ 39 µg/mL)

Structure (SMILES): Cc1cc2nc(CNCCO)cc(-c3ccccc3Cl)c2c(C)c1-c1ccncc1 [Compound 6]
- MIC90 [1]: 5 µM (≈ 2.09 µg/mL)

Structure (SMILES): Cc1cc2nc(CN(C)C)cc(-c3ccccc3Cl)c2c(C)c1-c1ccncc1 [Compound 5]
- MIC90 [1]: 10 µM (≈ 4.02 µg/mL)

Structure (SMILES): Cc1cc2nc(C(=O)N3CCC(N(C)C)C3)cc(-c3ccccc3Cl)c2c(C)c1-c1ccc(CN2CCOCC2)cc1 (centres unmarked) [Compound 103]
- MIC90 [4]: 0.8 µM (≈ 0.467 µg/mL)

Structure (SMILES): Cc1cc2nc(C(=O)N[C@@H]3CNC[C@@H]3F)cc(-c3ccnn3C)c2c(C)c1-c1ccncc1 (racemic) [Compound 105, N-[(3R,4S and 3S,4R)-4-fluoropyrrolidin-3-yl]-5,7-dimethyl-4-(2-methylpyrazol-3-yl)-6-(4-pyridyl)quinoline-2-carboxamide]
- MIC90 [4]: 3 µM (≈ 1.33 µg/mL)

Structure (SMILES): Cc1cc2nccc(-c3cncnc3)c2c(C)c1-c1ccc(CN2CCOCC2)cc1 [Compound 64]
- MIC90 [7]: 2.5 µM (≈ 1.03 µg/mL)

Structure (SMILES): Cc1cc2nccc(-c3cccnc3)c2c(C)c1-c1ccc(CN2CCOCC2)cc1 [Compound 93]
- MIC90 [3]: 1.6 µM (≈ 0.655 µg/mL)

Structure (SMILES): Cc1cc2nc(C(=O)N(C)C)cc(-c3ccccc3Cl)c2c(C)c1-c1ccncc1 [Compound 29]
- MIC90 [1]: 20 µM (≈ 8.32 µg/mL)

Structure (SMILES): Cc1cc2nc(C(=O)N[C@H]3CCCC[C@@H]3O)cc(-c3ccccc3Cl)c2c(C)c1-c1ccncc1 [Compound 23]
- MIC90 [1]: 1.25 µM (≈ 0.608 µg/mL)

Structure (SMILES): Cc1cc2nc(CCC(=O)N(C)C)cc(-c3ccccc3Cl)c2c(C)c1-c1ccncc1 [Compound 10]
- MIC90 [1]: 20 µM (≈ 8.88 µg/mL)

Structure (SMILES): CNC(=O)c1cc(N2CCOCC2)c2c(C)c(-c3ccncc3)c(C)cc2n1 [Compound 70]
- MIC90 [5]: 20 µM (≈ 7.53 µg/mL)

Structure (SMILES): Cc1cc2nc(C(=O)NCC(O)CO)cc(-c3ccccc3Cl)c2c(C)c1-c1ccncc1 (centres unmarked) [Compound 22]
- MIC90 [1]: 0.4 µM (≈ 0.185 µg/mL)

Structure (SMILES): Cc1cc2nc(NCCO)cc(-c3ccccc3Cl)c2c(C)c1-c1ccncc1 [Compound 9]
- MIC90 [1]: 3 µM (≈ 1.21 µg/mL)

Structure (SMILES): CNC(=O)c1cc(N2CCCC2)c2c(C)c(-c3ccncc3)c(C)cc2n1 [Compound 71]
- MIC90 [5]: > 50 µM

Structure (SMILES): CNC(=O)c1cc(-c2ccccc2F)c2c(C)c(C3=CCC(CN4CCOCC4)CC3)c(C)cc2n1 (centres unmarked) [Compound 92]
- MIC90 [6]: 1.25 µM (≈ 0.61 µg/mL)

Structure (SMILES): Cc1cc2nccc(-c3ccccc3Cl)c2c(C)c1-c1ccc(CN2CCOCC2)cc1 [Compound 48]
- MIC90: 0.3 µM (≈ 0.133 µg/mL)

Structure (SMILES): CNS(=O)(=O)c1cc(-c2ccccc2Cl)c2c(C)c(-c3ccncc3)c(C)cc2n1 [Compound 11]
- MIC90 [1]: 10 µM (≈ 4.38 µg/mL)

Structure (SMILES): CNC(=O)c1cc(-c2ccccc2F)c2c(C)c(C3=CCN(C(=O)N4CCOCC4)CC3)c(C)cc2n1 [Compound 90]
- MIC90 [6]: 5 µM (≈ 2.51 µg/mL)

Structure (SMILES): Cc1cc2nc(C(=O)NCCO)cc(-c3ccccc3F)c2c(C)c1-c1ccncc1 [Compound 38]
- MIC90 [2]: 1.6 µM (≈ 0.665 µg/mL)

Structure (SMILES): COc1ncccc1-c1ccnc2cc(C)c(-c3ccc(CN4CCOCC4)cc3)c(C)c12 [Compound 60]
- MIC90 [7]: 2.5 µM (≈ 1.1 µg/mL)

Structure (SMILES): CNC(=O)c1cc(-c2ccccc2F)c2c(C)c(C3=CCC(C(=O)N4CCOCC4)CC3)c(C)cc2n1 (centres unmarked) [Compound 89]
- MIC90 [6]: 1.25 µM (≈ 0.627 µg/mL)

Structure (SMILES): Cc1cc2nc(C(=O)N[C@@H](C)CCO)cc(-c3ccccc3F)c2c(C)c1-c1ccncc1 [Compound 42]
- MIC90 [2]: 0.16 µM (≈ 0.071 µg/mL)

Structure (SMILES): Cc1cc2nc(C(=O)NS(=O)(=O)C3CC3)cc(-c3ccccc3Cl)c2c(C)c1-c1ccncc1 [Compound 20]
- MIC90 [1]: 2.5 µM (≈ 1.23 µg/mL)

Structure (SMILES): Cc1cc2nc(C(N)=O)cc(-c3ccccc3Cl)c2c(C)c1-c1ccncc1 [Compound 12]
- MIC90 [1]: 1.25 µM (≈ 0.485 µg/mL)

Structure (SMILES): CNC(=O)c1cc(-c2ccccc2F)c2c(C)c(-c3cccs3)c(C)cc2n1 [Compound 81]
- MIC90 [6]: 3 µM (≈ 1.17 µg/mL)

Structure (SMILES): CNC(=O)c1cc(N2CCNCC2)c2c(C)c(-c3ccncc3)c(C)cc2n1 [Compound 101]
- MIC90 [3]: > 50 µM
